# Laboratory results taken from article doi:10.1101/2022.07.21.500659v1 (bioRxiv, 2022).
# Legend:
# Format in all cases: in vivo, mouse
# OVX BALB/c mice [1] = test: Circulating PTH, CTX-I and P1NP in OVX mice; conditions: plasma at necropsy, vs OVX+vehicle
# OVX BALB/c mice [2] = test: High resolution X-ray microCT of tibia in OVX mice; conditions: 8 weeks, vs OVX+vehicle
# OVX BALB/c mice [3] = test: Dynamic bone histomorphometry of tibia in OVX mice; conditions: calcein labelling
# OVX BALB/c mice [4] = conditions: femur midshaft cortical cross-section, FTIRI, vs vehicle-treated OVX mice
# OVX BALB/c mice [5] = test: Bone strength, 3-point bending of femur in OVX mice; conditions: 8 weeks of treatment
structure (smiles),measurement,setting,value
O=P(O)(O)C(O)(Cn1ccnc1)P(=O)(O)O [zoledronic acid],Change of circulating levels of P1NP,OVX BALB/c mice [1],−25%
same,Reduction of circulating levels of CTX-I,OVX BALB/c mice [1],24%
same,Increase of cortical thickness,OVX BALB/c mice [2]; midshaft tibia,6%
same,Increase of trabeculae numbers,OVX BALB/c mice [2]; proximal tibia,106%
same,Increase of trabecular bone mass,OVX BALB/c mice [2]; proximal tibia,85%
same,Active mineralizing surface,OVX BALB/c mice [3],reduction
same,Bone formation rate,OVX BALB/c mice [3],reduction
same,Enhancement of collagen maturity,OVX BALB/c mice [4],None of these effects were observed
same,Reduction of the degree of mineralization of the bone ECM,OVX BALB/c mice [4],None of these effects were observed
same,Reduced deformation in load-deformation curves of OVX mice,OVX BALB/c mice [5],not ameliorated
